{
  "source": "patent US20010016590A1",
  "about": "“Use of hydroxymatairesinol for prevention of cancers, non-cancer, hormone dependent diseases and cardiovascular diseases by hydroxymatairesinol, and a pharmaceutical preparation, food additive and food product comprising hydroxymatairesinol” (priority 1999, published 2001)",
  "key": {"aromatase": {"target": "T1, aromatase (Homo sapiens, UniProt P11511)", "T1 construct": "800 μl cell suspension (1 million cells); endogenous in cells; host or cells: JEG-3 human choriocarcinoma cells", "T1 sequence (P11511 1-503)": "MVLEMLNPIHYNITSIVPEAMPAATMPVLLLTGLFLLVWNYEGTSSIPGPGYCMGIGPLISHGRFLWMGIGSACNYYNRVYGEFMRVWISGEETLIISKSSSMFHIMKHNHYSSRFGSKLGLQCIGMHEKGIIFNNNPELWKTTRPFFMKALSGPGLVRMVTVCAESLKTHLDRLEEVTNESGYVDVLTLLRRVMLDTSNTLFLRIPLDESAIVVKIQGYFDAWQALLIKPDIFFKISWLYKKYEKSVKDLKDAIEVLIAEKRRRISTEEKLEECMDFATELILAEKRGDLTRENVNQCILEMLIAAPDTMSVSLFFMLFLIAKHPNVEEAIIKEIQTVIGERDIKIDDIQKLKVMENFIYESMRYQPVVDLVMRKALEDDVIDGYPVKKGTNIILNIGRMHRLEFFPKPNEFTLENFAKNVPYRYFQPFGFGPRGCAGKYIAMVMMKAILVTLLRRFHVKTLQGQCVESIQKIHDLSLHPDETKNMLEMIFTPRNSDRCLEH", "assay": "Aromatase inhibiting capacity in JEG-3 cells", "format": "cell-based", "conditions": "FIG. 1, enterolactone within 1.0 to 10.0 μM", "protocol": "The effects of HMR and structurally related lignans (enterolactone, enterodiol and 7-hydroxyenterolactone) were studied on formation of ^3H-17β-estradiol from ^3H-andostenedione in JEG-3 cells, human choriocarcinoma cell line. […] Cells were maintained in DMEM containing 10% fetal calf serum (FCS). The incubation mixture contained 50 μl ^3H-androst-4-ene, 3,17-dione (0.5 nM), 50 μl unlabelled androstenedione (0.5 nM), 100 μl test compounds (10 mM) and 800 μl cell suspension (1 million cells). After the incubation for 4 h, unlabelled carriers (androstenedione, testosterone, 17β-estradiol and estrone) were added. The steroids were extracted twice with 3.0 ml dichloromethane. […] The column system consisted of a guard column followed by a C18 150×3.9 mm ID analytical column (Technopak 10 C18 HPLC Technology; Wellington House, Cheshire, UK). The mobile phase was acetonitrile /water (35/65) and the flow rate was 1.2 ml/min. For in-line detection of the radioactive metabolites, the eluent of the HPCL column was continuously mixed with liquid scintillant and then monitored with in-line radioactivity detector."}, "uterine weight": {"test_system": "uterine weight", "conditions": "feeding during pregnancy and lactation to rats; not evident at later stages; Tou et al. 1998; cited from earlier work"}, "[1]": {"test_system": "antiestrogen-sensitive DMBA-induced breast cancer", "conditions": "supplementation of a high-fat diet; flaxseed flour 5% or 10%; Serraino and Thompson; Thompson et al.; cited from earlier work"}, "[2]": {"test_system": "chemically induced aberrant crypts in rat colon", "conditions": "Serraino and Thompson 1992, Jenab and Thompson 1996; cited from earlier work"}, "MCF-7 cells": {"test_system": "MCF-7 cells", "assay": "Estrogenic and antiestrogenic activity in MCF-7 cell proliferation assay", "format": "cell-based, human", "conditions": "FIG. 2", "protocol": "The MCF-7 cell line (human breast cancer cells) stock cultures were grown in phenol red free RPMI medium supplemented with 5 % FCS, 100 U/ml penicillin and 100 μg/ml streptomycin, 10 μg/ml insulin and 1 nM 17μ-estradiol in T-75 cell culture bottles. The medium was replaced with fresh ones three times per week. The stock cultures were harvested by trypsinization and suspended in 10 ml phenol red free versene solution and centrifuged for 5 min 800 rpm. The cell pellet was carefully resuspended into RPMI medium supplemented with 5% dextran charcoal stripped FCS (dcFCS) and seeded on 6 well plates 50 000 cells/ 3.0 ml medium/ well. On the second day of culture the medium was changed and test compounds were added. To test the estrogenicity of the lignan compounds, they were diluted in ethanol and added to cell cultures in final concentration of […]. In each proliferation assay 1.0 nM 1 7β-estradiol solution in ethanol was used as a positive control for estrogenic response. Equal amounts of ethanol were added to control wells. To test the antiestrogenicity both 17β-estradiol and lignan solutions were added to cell cultures. The cells were cultured for 5 to 7 days in the presence of test compounds, and the medium was changed every second day. Cell proliferation was quantified by counting the released nuclei with Coulter counter."}, "[3]": {"test_system": "uterine growth of immature rats", "assay": "Immature rat uterotropic test", "format": "in vivo", "conditions": "7 days treatment, FIG. 3", "protocol": "The estrogenicity HMR was evaluated by the uterotropic assay in immature rats which was performed as described earlier (Jordan et al. 1977), with the exception of treatment time which was 7 days instead of 3 days in the reference study. The treatment time was longer because of the expected weak estrogenicity of the test compound. The treatment of immature rats with an aromatase inhibitor (MPV-2213ad), which prevents biosynthesis of estradiol, was used as a methodological control for non-estrogen-stimulated uterus."}, "[4]": {"test_system": "intact Noble strain male rats", "assay": "Estrogenic (antiandrogenic) activity in intact adult male rats", "format": "in vivo, rat", "protocol": "(§1) Estrogenic (anfiandrogenic) and antiestrogenic effects of HMR were studied in intact and hypoandrogenic Noble strain male rats (age 6-9 month), correspondingly. The chronic hypoandrogenic state with both structural and functional changes in the male reproductive tract was induced by neonatal estrogenization (diethylstilbestrol, 10.0 μg/kg body weight in rape oil s.c. on postnatal days 1-5). These changes are known to be partly reversible by aromatase inhibitor treatment consisting daily dose of MPV-2213 ad 10-30 mg/kg body weight (Streng et al. unpublished observations).\n(§2) Twelve of both intact and hypoandrogenic animals were cavaged in daily dosage of HMR 50 mg/kg body weight in rape oil. Another twelve animals from both animal models were cavaged with rape oil only as a placebo treatment. After four-week treatment the animals were sacrificed. The weights of testis and accessory sex glands (ventral prostate, seminal vesicles and coagulating gland) were measured. Serum and testis testosterone and pituitary and serum luteinizing hormone (LH) levels were measured by immunoassays (Haavisto et al. 1993)."}, "[5]": {"test_system": "hypoandrogenic Noble strain male rats", "assay": "Antiestrogenic activity in hypoandrogenic (neonatally estrogenized) adult male rats", "format": "in vivo, rat", "conditions": "hypoandrogenic animals", "protocol": "as §1, §2"}, "[6]": {"test_system": "DMBA-induced mammary gland tumors", "assay": "Antitumor activity in rat DMBA-induced mammary cancer model", "format": "in vivo", "protocol": "Antitumor activity of HMR in rat mammary cancer was studied as described earlier ([…] et al. 1986). Fifty-day-old female Sprague-Dawley rats were given 12.0 mg DMBA (dimethylbentz[a]anthracene) by […]. After approximately 6 weeks palpable tumors could be detected, whereafter the width (w) and the length (1) of the tumors were measured once a week to determine the tumor volumes according to a formula V=(πw^21)/12. The rats were also weighed once a week. The rats were allocated in 3 different groups so that the total number of tumors in the beginning of the experiment was similar in each group: (1) Control group 8 animals, (2) HMR 3.0 mg/kg 7 animals, and (3) HMR 15.0 mg/kg 7 animals, one of which had to be killed before the end of the experiment. HMR was given per os starting 9 weeks after the DMBA-induction, i.e. 3 weeks after palpable tumors appeared, and was given daily for 7.5 weeks. At the end of the experiment the tumors were classified in groups according to their growth pattern: 1. Growing tumors (PD=progressive disease); 2. Non-growing, stabilized tumors (SD=stabilized disease, no change in tumor volume or regression less than 75%; 3. Regressing tumors (PR=partial response, regression of tumor volume more than 75%); 4. Disappeared tumors (CR=complete response, no palpable tumor)."}, "[7]": {"conditions": "intact animals, 50 mg/kg HMR, four week exposure, mean"}},
  "data": [
    {"compound": "O=C1OC[C@H](Cc2cccc(O)c2)[C@H]1[C@@H](O)c1cccc(O)c1", "note": "[7-hydroxyenterolactone]", "values": [
      {"measurement": "Inhibition of 3H-17β-estradiol formation from 3H-androstenedione (aromatization)", "setting": "aromatase", "result": "no inhibitory effects"}
    ]},
    {"compound": "OCC(Cc1cccc(O)c1)C(CO)Cc1cccc(O)c1", "note": "(stereo not shown) [enterodiol, 2,3-bis-(3’-hydroxybenzyl)-butane-1,4-diol]", "values": [
      {"measurement": "Inhibition of 3H-17β-estradiol formation from 3H-androstenedione (aromatization)", "setting": "aromatase", "result": "noninhibitory"}
    ]},
    {"compound": "secoisolariciresinol-diglycoside [SDG]", "values": [
      {"measurement": "Uterine weight (estrogen-like activity)", "setting": "uterine weight", "result": "increased the uterine weight at weaning"},
      {"measurement": "Development of DMBA-induced breast cancer", "setting": "[1]", "result": "prevented the development"},
      {"measurement": "Formation of chemically induced aberrant crypts", "setting": "[2]", "result": "inhibited"}
    ]},
    {"compound": "O=C1OCC(Cc2cccc(O)c2)C1Cc1cccc(O)c1", "note": "(stereo not shown) [enterolactone, 2,3-bis-(3’-hydroxybenzyl)-butyrolactone]", "values": [
      {"measurement": "Inhibition of 3H-17β-estradiol formation from 3H-androstenedione (aromatization)", "setting": "aromatase", "result": "dose-dependent inhibition"}
    ]},
    {"compound": "COc1cc(CC2C(=O)OCC2C(O)c2ccc(O)c(OC)c2)ccc1O", "note": "(stereo not shown) [HMR, hydroxymatairesinol]", "values": [
      {"measurement": "Inhibition of 3H-17β-estradiol formation from 3H-androstenedione (aromatization)", "setting": "aromatase", "result": "no inhibitory effects"},
      {"measurement": "Estrogenic or antiestrogenic activity in MCF-7 cell proliferation", "setting": "MCF-7 cells", "result": "very weak, not statistically significant"},
      {"measurement": "Estrogenic effect on the uterine weight gain", "setting": "[3]", "result": "no significant estrogenic effect"},
      {"measurement": "Changes in the weights of accessory sex glands and testis vs placebo", "setting": "[4]; control (intact) animals, 4-week treatment", "result": "no significant changes"},
      {"measurement": "Pituitary LH", "setting": "[4]; [7]", "result": 6.84, "unit": "µg/pit"},
      {"measurement": "Serum LH", "setting": "[4]; [7]", "result": 1.09, "unit": "ng/mL"},
      {"measurement": "Serum testosterone", "setting": "[4]; [7]", "result": 2.77, "unit": "ng/mL"},
      {"measurement": "Changes in testosterone or LH concentrations vs placebo", "setting": "[4]; intact animals, 4-week treatment", "result": "no significant changes"},
      {"measurement": "Pituitary LH", "setting": "[5]; 50 mg/kg HMR, four week exposure, mean", "result": 7.53, "unit": "µg/pit"},
      {"measurement": "Changes in testosterone or LH concentrations vs placebo", "setting": "[5]; 4-week treatment", "result": "no significant changes"},
      {"measurement": "Changes in the weights of accessory sex glands and testis vs placebo", "setting": "[5]; 4-week treatment", "result": "no significant changes"},
      {"measurement": "Dose-dependency of antitumor action", "setting": "[6]; 3.0 vs 15.0 mg/kg", "result": "no clear dose-dependency"},
      {"measurement": "Antitumor effect (growing PD versus SD, PR, CR tumors)", "setting": "[6]; HMR 3.0 and 15.0 mg/kg per os daily for 7.5 weeks, FIG. 4", "result": "statistically very significant"}
    ]}
  ]
}
